Assay results: US8669291B2, “Phenyl substituted cycloalkylamines as monoamine reuptake inhibitors” (Sunovion Pharmaceuticals Inc., priority 2007, dated 2014)
Read-outs that look alike come from different tables or passages of the source.

What was measured:
[1] = target: T1, human dopamine (DA) reuptake transporter (Homo sapiens, UniProt Q01959); assay: functional uptake assay, human DA reuptake transporter; assay type: cell-based
T1 construct: expressed in transfected cells
Description: (§1) Compounds were tested for their inhibition of functional uptake of serotonin (5-HT), norepinephrine (NE), and dopamine (DA), in synaptosomes prepared from rat whole brain, hypothalamus, or corpus striatum, respectively, and/or using recombinant human transporters.

[2] = target: T2, human serotonin (5-HT) reuptake transporter (Homo sapiens, UniProt P31645); assay: functional uptake assay, human 5-HT reuptake transporter; assay type: cell-based
T2 construct: expressed in transfected cells
T2 sequence (P31645 whole entry): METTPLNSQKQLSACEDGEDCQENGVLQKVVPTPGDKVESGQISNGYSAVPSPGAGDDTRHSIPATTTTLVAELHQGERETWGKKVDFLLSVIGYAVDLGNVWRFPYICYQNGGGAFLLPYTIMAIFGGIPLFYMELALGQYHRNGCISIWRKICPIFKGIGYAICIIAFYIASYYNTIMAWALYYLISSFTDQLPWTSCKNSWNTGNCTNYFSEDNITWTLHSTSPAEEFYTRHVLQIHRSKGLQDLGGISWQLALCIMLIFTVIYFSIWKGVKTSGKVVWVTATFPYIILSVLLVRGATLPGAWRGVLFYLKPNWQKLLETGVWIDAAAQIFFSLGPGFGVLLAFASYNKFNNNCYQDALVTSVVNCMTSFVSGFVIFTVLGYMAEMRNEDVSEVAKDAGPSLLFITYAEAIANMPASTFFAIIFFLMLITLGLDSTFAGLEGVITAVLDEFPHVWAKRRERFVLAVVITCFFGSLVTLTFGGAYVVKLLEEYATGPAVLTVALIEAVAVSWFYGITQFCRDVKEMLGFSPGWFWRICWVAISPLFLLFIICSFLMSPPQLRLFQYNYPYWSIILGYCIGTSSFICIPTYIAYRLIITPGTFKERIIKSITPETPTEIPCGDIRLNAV
Description: as §1

[3] = target: T3, human norepinephrine (NE) reuptake transporter (Homo sapiens, UniProt P23975); assay: functional uptake assay, human NE reuptake transporter; assay type: cell-based; conditions: read-out: NE IC50
T3 construct: expressed in transfected cells
T3 sequence (P23975 whole entry): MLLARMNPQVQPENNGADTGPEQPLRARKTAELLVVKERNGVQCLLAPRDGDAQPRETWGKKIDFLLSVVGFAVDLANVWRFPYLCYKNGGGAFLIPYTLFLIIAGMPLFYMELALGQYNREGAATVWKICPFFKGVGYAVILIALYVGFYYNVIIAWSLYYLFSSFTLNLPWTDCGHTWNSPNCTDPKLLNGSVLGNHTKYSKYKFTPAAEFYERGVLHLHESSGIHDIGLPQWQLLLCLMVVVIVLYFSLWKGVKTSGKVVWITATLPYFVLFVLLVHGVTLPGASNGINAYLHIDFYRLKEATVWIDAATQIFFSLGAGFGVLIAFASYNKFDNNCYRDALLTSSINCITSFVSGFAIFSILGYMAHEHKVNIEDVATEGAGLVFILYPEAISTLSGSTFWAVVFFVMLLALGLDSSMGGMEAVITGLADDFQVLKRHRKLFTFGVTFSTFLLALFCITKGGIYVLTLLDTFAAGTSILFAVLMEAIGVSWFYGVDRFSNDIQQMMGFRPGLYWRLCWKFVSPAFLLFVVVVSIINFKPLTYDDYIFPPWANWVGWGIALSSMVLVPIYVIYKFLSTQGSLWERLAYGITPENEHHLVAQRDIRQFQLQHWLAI
Description: as §1

[4] = human metabolic stability (HLM t1/2); assay type: in vitro ADME; conditions: human liver microsomes
Source text: 4b. In Vitro PK Data (Human Metabolic Stability, Inhibition of CYP450 Enzymes, Inhibition of HERG Current)

[5] = in vivo; cited from earlier work
serotonin uptake sites = serotonin uptake sites (Homo sapiens, UniProt P31645); conditions: cited from earlier work
Chain of serotonin uptake sites (P31645 whole entry): as the sequence (P31645 whole entry) above

[6] = Example 4a, human reuptake transporter, read-out: DA IC50
[7] = Example 6 summary of selected in vitro data, read-out: DA IC50
[8] = Example 4a, human reuptake transporter, read-out: 5-HT IC50
[9] = Example 6 summary of selected in vitro data, read-out: 5-HT IC50
[10] = Example 4a, human reuptake transporter
[11] = Example 6 summary of selected in vitro data

T1 sequence (Q01959 whole entry): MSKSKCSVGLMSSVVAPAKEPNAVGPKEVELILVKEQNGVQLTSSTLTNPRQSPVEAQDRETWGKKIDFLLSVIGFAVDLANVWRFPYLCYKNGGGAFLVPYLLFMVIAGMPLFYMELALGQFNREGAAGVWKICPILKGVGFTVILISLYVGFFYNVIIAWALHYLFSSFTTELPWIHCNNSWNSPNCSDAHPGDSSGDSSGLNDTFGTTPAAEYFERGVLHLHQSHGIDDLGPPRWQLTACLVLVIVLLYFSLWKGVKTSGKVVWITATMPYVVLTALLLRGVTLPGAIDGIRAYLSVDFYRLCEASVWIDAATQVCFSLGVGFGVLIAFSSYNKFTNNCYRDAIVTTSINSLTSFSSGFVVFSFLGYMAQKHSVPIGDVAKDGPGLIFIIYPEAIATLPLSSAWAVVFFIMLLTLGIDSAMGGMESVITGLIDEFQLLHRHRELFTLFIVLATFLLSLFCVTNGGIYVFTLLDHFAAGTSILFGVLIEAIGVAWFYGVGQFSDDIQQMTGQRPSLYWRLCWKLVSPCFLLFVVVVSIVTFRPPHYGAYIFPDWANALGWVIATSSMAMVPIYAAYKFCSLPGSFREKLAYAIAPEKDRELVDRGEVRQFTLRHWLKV

Structure (SMILES) | IC50 [1, 6] | IC50 [1, 7] | IC50 [2, 8] | IC50 [2, 9] | IC50 [3, 10] | IC50 [3, 11] | half-life [4] | IC50 ([1]; read-out: DA IC50 nM, Example 6 summary of selected in vitro data) | IC50 ([2]; read-out: 5-HT IC50 nM, Example 6 summary of selected in vitro data) | immobility in the tail suspension test [5] | affinity for the serotonin uptake sites versus the racemic compound (serotonin uptake sites)
NCC1CCCCC1(O)c1ccc(Cl)c(Cl)c1 (single isomer, unassigned) [Compound 8, cis-2-(aminomethyl)-1-(3,4-dichlorophenyl)cyclohexanol] | 201 to 1000 nM | 201 to 1000 nM | 7000 to 10000 nM | 7000 to 10000 nM | > 5 µM | > 5 µM | – | – | – | – | –
CN(C)C[C@H]1CCCC[C@]1(O)c1ccc(Cl)c(Cl)c1 (single isomer, unassigned) [Compound 1, cis-1-(3,4-dichlorophenyl)-2-((dimethylamino)methyl)cyclohexanol] | 201 to 1000 nM | 201 to 1000 nM | 1 to 2000 nM | 1 to 2000 nM | 0.201 to 1 µM | 0.201 to 1 µM | 0.417 to 2.92 h | – | – | – | –
NC[C@]1(F)CCCC[C@@]1(O)c1ccc(Cl)c(Cl)c1 [Compound 21 A/B] | – | – | – | – | – | > 5 µM | – | 10 to 200 nM | 1 to 2000 nM | – | –
C[C@@]1(CN)CCCC[C@@]1(O)c1ccc(Cl)c(Cl)c1 [Compound 15 A/B] | – | 201 to 1000 nM | – | 2000 to 7000 nM | – | > 5 µM | – | – | – | – | –
CN(C)C[C@]1(F)CCCC[C@@]1(O)c1ccc(Cl)c(Cl)c1 [Compound 23 A/B] | – | 201 to 1000 nM | – | 2000 to 7000 nM | – | > 5 µM | – | – | – | – | –
NC[C@@H]1CCCC[C@@]1(O)c1ccc(Cl)c(Cl)c1 (relative stereo) [Compound 9, cis-2-(aminomethyl)-1-(3,4-dichlorophenyl)cyclohexanol] | 10 to 200 nM | 10 to 200 nM | > 10000 nM | > 10000 nM | 1 to 5 µM | 1 to 5 µM | – | – | – | – | –
Clc1ccc([C@@]23CNC[C@@H]2C3)cc1Cl (single isomer, unassigned) [DOV 21,947, (+)-1-(3,4-dichlorophenyl)-3-azabicyclo[3.1.0]hexane] | – | – | – | – | – | – | – | – | – | dose-dependent reduction in immobility | significantly greater affinity
CNC[C@]1(C)CCCC[C@@]1(O)c1ccc(Cl)c(Cl)c1 [Compound 16 A/B] | – | 10 to 200 nM | – | 1 to 2000 nM | – | > 5 µM | – | – | – | – | –
CN(C)C[C@]1(C)CCCC[C@@]1(O)c1ccc(Cl)c(Cl)c1 [Compound 17 A/B] | – | 201 to 1000 nM | – | 2000 to 7000 nM | – | > 5 µM | – | – | – | – | –
